Data as given in the supplement of paper PMC11061612.

Assays:
Assay in all cases: Bliss excess, mean over the matrix (fraction); higher = more synergy
[1] = system: Hs-633T (Other Solid Carcinomas)
In short: (§1)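 After 24 hours at 37°C and 5% CO2 in 1536-well plates, cells in DMEM/F12 or RPMI plus 10% FBS received two-drug dose matrices for 72 hours. Viability came from CellTiter-Glo 2.0 luminescence and was scaled as inhibition, anchored at 0 by vehicle wells and at 1 by blank wells. Combination Emax is taken as the second-highest inhibition in the matrix, and Bliss excess as the observed combination effect less EA + EB − EA·EB, with EA and EB the single-agent effects.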

[2] = system: NCI-H69 (Small Cell Lung Carcinoma)
In short: as §1

[3] = system: SH-4 (Melanoma)
In short: as §1

[4] = system: HO-1-u-1 (Oral Cavity Carcinoma)
In short: as §1

[5] = system: SW626 (Colorectal Carcinoma)
In short: as §1

[6] = system: SK-OV-3 (Ovarian Carcinoma)
In short: as §1

[7] = system: HMV-II (Melanoma)
In short: as §1

[8] = system: KYSE-410 (Esophageal Squamous Cell Carcinoma)
In short: as §1

[9] = system: K5 (Thyroid Gland Carcinoma)
In short: as §1

[10] = system: OC-314 (Ovarian Carcinoma)
In short: as §1

[11] = system: SW1116 (Colorectal Carcinoma)
In short: as §1

[12] = system: HCC-15 (Squamous Cell Lung Carcinoma)
In short: as §1

[13] = system: RKO (Colorectal Carcinoma)
In short: as §1

[14] = system: RT-112 (Bladder Carcinoma)
In short: as §1

[15] = system: COLO-829 (Melanoma)
In short: as §1

[16] = system: SW1271 (Small Cell Lung Carcinoma)
In short: as §1

[17] = system: KARPAS-231 (B-Cell Non-Hodgkin's Lymphoma)
In short: as §1

[18] = system: NCI-H2795 (Mesothelioma)
In short: as §1

[19] = system: NB14 (Neuroblastoma)
In short: as §1

[20] = system: TE-4 (Esophageal Squamous Cell Carcinoma)
In short: as §1

Row | SMILES | Bliss excess [1] | Bliss excess [2] | Bliss excess [3] | Bliss excess [4] | Bliss excess [5] | Bliss excess [6] | Bliss excess [7] | Bliss excess [8] | Bliss excess [9] | Bliss excess [10] | Bliss excess [11] | Bliss excess [12] | Bliss excess [13] | Bliss excess [14] | Bliss excess [15] | Bliss excess [16] | Bliss excess [17] | Bliss excess [18] | Bliss excess [19] | Bliss excess [20]
1 | COc1cccc(OCCCN)c1-c1cc(Nc2cnc(C#N)cn2)n[nH]1 [Prexasertib] + O=C(c1cc(Cc2n[nH]c(=O)c3ccccc23)ccc1F)N1CCN(C(=O)C2CC2)CC1 [Olaparib] (first compound max 1 µM, 7x7, partner max 10 µM) | -0.0074 | 0.0332 | -0.099 | -0.109 | -0.074 | -0.12 | -0.0242 | -0.0463 | -0.051 | -0.0616 | -0.0415 | 0.0101 | -0.0165 | -0.137 | -0.058 | -0.0602 | -0.0206 | -0.024 | -0.0553 | 0.015
2 | COc1cc2c(cc1OCCCCCOc1cc3c(cc1OC)C(=O)N1C=C(C)C[C@H]1C=N3)N=C[C@@H]1CC(C)=CN1C2=O [SG3199] + O=C(c1cc(Cc2n[nH]c(=O)c3ccccc23)ccc1F)N1CCN(C(=O)C2CC2)CC1 [Olaparib] (first compound max 0.001 µM, 7x7, partner max 10 µM) | -0.0312 | -0.0136 | -0.027 | -0.0205 | -0.0362 | -0.0477 | -0.0524 | -0.0334 | -0.0105 | -0.036 | -0.0356 | -0.0166 | -0.0131 | -0.0227 | -0.0476 | -0.0276 | 0.0289 | -0.0524 | -0.0283 | -0.0319
3 | CCc1c2c(nc3ccc(O)cc13)-c1cc3c(c(=O)n1C2)COC(=O)[C@]3(O)CC [SN-38] + CN(C)CCCOc1ccc(-c2ccc3ncc4c(c3c2)n(C2CCOCC2)c(=O)n4C)cn1 [AZD0156] (first compound max 0.3 µM, 7x7, partner max 1 µM) | 0.153 | -0.0197 | -0.0552 | 0.0393 | -0.0379 | -0.0132 | -0.0108 | -0.0542 | -0.0797 | 0.0872 | -0.0108 | 0.16 | 0.0263 | 0.0988 | -0.0257 | 0.0025 | 0.0202 | 0.0334 | 0.0191 | 0.0185
4 | C[C@@H](c1ccc2nccn2c1)n1nnc2ncc(-c3cnn(C)c3)nc21 [Savolitinib] + CC1(C)CCC(CN2CCN(c3ccc(C(=O)NS(=O)(=O)c4ccc(NCC5CCOCC5)c([N+](=O)[O-])c4)c(Oc4cnc5[nH]ccc5c4)c3)CC2)=C(c2ccc(Cl)cc2)C1 [Venetoclax] (first compound max 1 µM, 7x7, partner max 1 µM) | -0.0383 | -0.0144 | -0.0535 | -0.039 | -0.066 | -0.0511 | -0.0621 | -0.0726 | -0.0374 | -0.0046 | -0.0595 | -0.0229 | -0.05 | -0.046 | -0.0411 | -0.0436 | -0.0344 | 0.0032 | -0.0082 | -0.009
5 | C[C@@H](c1ccc2nccn2c1)n1nnc2ncc(-c3cnn(C)c3)nc21 [Savolitinib] + Cc1c2c(nn1C)CSCc1cc(n(C)n1)CSc1cc(c3ccccc3c1)OCCCc1c(C(=O)O)n(C)c3c-2c(Cl)ccc13 [AZD5991] (first compound max 1 µM, 7x7, partner max 1 µM) | -0.0551 | -0.0269 | -0.0252 | -0.034 | 0.0147 | -0.0556 | -0.0404 | -0.0749 | -0.0085 | -0.018 | -0.0252 | -0.0349 | -0.0067 | -0.0265 | -0.0075 | -0.0415 | -0.0258 | 0.008 | -0.0411 | -0.0289
6 | Cn1cnc2c(F)c(Nc3ccc(Br)cc3Cl)c(C(=O)NOCCO)cc21 [Selumetinib] + C=CCn1c(=O)c2cnc(Nc3ccc(N4CCN(C)CC4)cc3)nc2n1-c1cccc(C(C)(C)O)n1 [AZD1775] (first compound max 10 µM, partner max 1 µM) | -0.0094 | -0.0312 | -0.0546 | 0.0454 | -0.0577 | -0.0656 | -0.0494 | 0.0543 | -0.0375 | -0.027 | -0.0031 | 0.0018 | -0.0202 | -0.0352 | -0.0734 | -0.0806 | -0.0167 | -0.0298 | -0.0193 | -0.0849
7 | Cn1cnc2c(F)c(Nc3ccc(Br)cc3Cl)c(C(=O)NOCCO)cc21 [Selumetinib] + CC(C)n1c(=O)n(C)c2cnc3cc(F)c(-c4ccc(OCCCN5CCCCC5)nc4)cc3c21 [AZD1390] (first compound max 10 µM, 7x7, partner max 0.3 µM) | 0.0303 | -0.0305 | -0.0993 | -0.0387 | -0.0121 | -0.0088 | -0.0262 | -0.0327 | -0.021 | -0.0357 | -0.0094 | 0.0148 | -0.0273 | -0.0217 | -0.0578 | 0.0379 | -0.0101 | -0.0439 | 0.0021 | -0.0461
